Measured values: PubChem BioAssay (NCI)
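The compound was tested at five concentrations on cells cultured in 96-well plates, with a 48-hour exposure period. TGI is the concentration that stops growth completely.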

Key:
Assay in all cases: DTP human tumour cell line panel, 48 h
SK-MEL-2 melanoma = system: SK-MEL-2 melanoma
CCRF-CEM leukemia = system: CCRF-CEM leukemia
SK-MEL-28 melanoma = system: SK-MEL-28 melanoma
HL-60(TB) leukemia = system: HL-60(TB) leukemia
HS 578T breast = system: HS 578T breast
MDA-MB-231 breast = system: MDA-MB-231 breast
SR leukemia = system: SR leukemia
SNB-19 CNS = system: SNB-19 CNS
ACHN renal = system: ACHN renal
COLO 205 colon = system: COLO 205 colon
UACC-257 melanoma = system: UACC-257 melanoma
MOLT-4 leukemia = system: MOLT-4 leukemia
IGROV1 ovarian = system: IGROV1 ovarian
OVCAR-3 ovarian = system: OVCAR-3 ovarian
T-47D breast = system: T-47D breast
SNB-75 CNS = system: SNB-75 CNS
CAKI-1 renal = system: CAKI-1 renal
SF-268 CNS = system: SF-268 CNS
A498 renal = system: A498 renal
HCT-15 colon = system: HCT-15 colon
MALME-3M melanoma = system: MALME-3M melanoma
M14 melanoma = system: M14 melanoma
SW-620 colon = system: SW-620 colon
OVCAR-8 ovarian = system: OVCAR-8 ovarian
NCI-H522 lung = system: NCI-H522 lung
HOP-62 NSCLC = system: HOP-62 NSCLC
MDA-MB-435 = system: MDA-MB-435
BT-549 breast = system: BT-549 breast
U251 CNS = system: U251 CNS
786-0 renal = system: 786-0 renal
K-562 leukemia = system: K-562 leukemia
NCI/ADR-RES ovarian = system: NCI/ADR-RES ovarian
PC-3 prostate = system: PC-3 prostate
UO-31 renal = system: UO-31 renal
HOP-92 NSCLC = system: HOP-92 NSCLC
MDA-N = system: MDA-N
A549 NSCLC = system: A549 NSCLC
OVCAR-5 ovarian = system: OVCAR-5 ovarian
TK-10 renal = system: TK-10 renal
DU-145 prostate = system: DU-145 prostate
SN12C renal = system: SN12C renal
OVCAR-4 ovarian = system: OVCAR-4 ovarian
KM12 colon = system: KM12 colon
NCI-H23 lung = system: NCI-H23 lung
SF-539 CNS = system: SF-539 CNS
EKVX NSCLC = system: EKVX NSCLC
LOX IMVI melanoma = system: LOX IMVI melanoma
HCT-116 colon = system: HCT-116 colon
SK-OV-3 ovarian = system: SK-OV-3 ovarian
HT29 colon = system: HT29 colon
RXF 393 renal = system: RXF 393 renal
RPMI-8226 leukemia = system: RPMI-8226 leukemia
NCI-H460 lung = system: NCI-H460 lung
MCF7 breast = system: MCF7 breast
SK-MEL-5 melanoma = system: SK-MEL-5 melanoma
SF-295 CNS = system: SF-295 CNS
UACC-62 melanoma = system: UACC-62 melanoma
HCC-2998 colon = system: HCC-2998 colon

`CO/C(=C/C(=O)C(Cl)(Cl)Cl)CC/C(=C\C(=O)C(Cl)(Cl)Cl)OC` gave a TGI (SK-MEL-2 melanoma) of 84.1 µM, a TGI (CCRF-CEM leukemia) of over 100 µM and a TGI (SK-MEL-28 melanoma) of 80.5 µM. It also gave a TGI (HL-60(TB) leukemia) of 80.5 µM, a TGI (HS 578T breast) of over 100 µM and a TGI (MDA-MB-231 breast) of over 100 µM. The TGI (SR leukemia) was 51.7 µM, the TGI (SNB-19 CNS) was over 100 µM and the TGI (ACHN renal) was 65.2 µM. The TGI (COLO 205 colon) was over 100 µM, the TGI (UACC-257 melanoma) was 43.8 µM and the TGI (MOLT-4 leukemia) was over 100 µM. For the same molecule, the TGI (IGROV1 ovarian) was 35.8 µM, the TGI (OVCAR-3 ovarian) was 67.7 µM and the TGI (T-47D breast) was 72.5 µM. The TGI (SNB-75 CNS) was over 100 µM, the TGI (CAKI-1 renal) was 72.2 µM and the TGI (SF-268 CNS) was over 100 µM. It also gave a TGI (A498 renal) of over 100 µM, a TGI (HCT-15 colon) of 73.1 µM and a TGI (MALME-3M melanoma) of 66.4 µM. For the same molecule, the TGI (M14 melanoma) was 88.3 µM, the TGI (SW-620 colon) was over 100 µM and the TGI (OVCAR-8 ovarian) was 56 µM. The TGI (NCI-H522 lung) was 57.5 µM, the TGI (HOP-62 NSCLC) was 49.5 µM and the TGI (MDA-MB-435) was 53.4 µM. It also gave a TGI (BT-549 breast) of 83.2 µM, a TGI (U251 CNS) of 54.7 µM and a TGI (786-0 renal) of 60.4 µM. The TGI (K-562 leukemia) was over 100 µM, the TGI (NCI/ADR-RES ovarian) was over 100 µM and the TGI (PC-3 prostate) was 87.7 µM. It also gave a TGI (UO-31 renal) of 43.4 µM, a TGI (HOP-92 NSCLC) of 40.1 µM and a TGI (MDA-N) of 66 µM. The TGI (A549 NSCLC) was over 100 µM, the TGI (OVCAR-5 ovarian) was over 100 µM and the TGI (TK-10 renal) was 73.2 µM. It also gave a TGI (DU-145 prostate) of 56.7 µM, a TGI (SN12C renal) of 54.5 µM and a TGI (OVCAR-4 ovarian) of 51 µM. For the same molecule, the TGI (KM12 colon) was 98.9 µM, the TGI (NCI-H23 lung) was 62.7 µM and the TGI (SF-539 CNS) was 63.2 µM. It also gave a TGI (EKVX NSCLC) of 59.7 µM, a TGI (LOX IMVI melanoma) of 41.5 µM and a TGI (HCT-116 colon) of 42.2 µM. It also gave a TGI (SK-OV-3 ovarian) of 87.3 µM, a TGI (HT29 colon) of 85.3 µM and a TGI (RXF 393 renal) of 34.7 µM. The TGI (RPMI-8226 leukemia) was 70.9 µM, the TGI (NCI-H460 lung) was 99.3 µM and the TGI (MCF7 breast) was 79.8 µM. For the same molecule, the TGI (SK-MEL-5 melanoma) was over 100 µM, the TGI (SF-295 CNS) was over 100 µM and the TGI (UACC-62 melanoma) was 46.8 µM.

In the case of `Cc1ccc(C2SCC(=O)N2c2ccc(-c3ccc(-n4c(-c5ccccc5)nc5ccccc5c4=O)cc3)cc2)cc1` (stereo unspecified), the TGI (SK-MEL-2 melanoma) is reported as over 100 µM, the TGI (CCRF-CEM leukemia) is reported as over 100 µM and the TGI (SK-MEL-28 melanoma) is reported as over 100 µM. It also gave a TGI (HL-60(TB) leukemia) of over 100 µM, a TGI (HS 578T breast) of over 100 µM and a TGI (MDA-MB-231 breast) of over 100 µM. It also gave a TGI (SR leukemia) of over 100 µM, a TGI (SNB-19 CNS) of over 100 µM and a TGI (ACHN renal) of over 100 µM. For the same molecule, the TGI (COLO 205 colon) was over 100 µM, the TGI (UACC-257 melanoma) was over 100 µM and the TGI (MOLT-4 leukemia) was over 100 µM. For the same molecule, the TGI (IGROV1 ovarian) was over 100 µM, the TGI (OVCAR-3 ovarian) was over 100 µM and the TGI (T-47D breast) was over 100 µM. It also gave a TGI (CAKI-1 renal) of over 100 µM, a TGI (SF-268 CNS) of over 100 µM and a TGI (A498 renal) of over 100 µM. It also gave a TGI (HCT-15 colon) of over 100 µM, a TGI (MALME-3M melanoma) of over 100 µM and a TGI (M14 melanoma) of over 100 µM. The TGI (SW-620 colon) was over 100 µM, the TGI (OVCAR-8 ovarian) was over 100 µM and the TGI (NCI-H522 lung) was over 100 µM. The TGI (HOP-62 NSCLC) was over 100 µM, the TGI (MDA-MB-435) was over 100 µM and the TGI (BT-549 breast) was over 100 µM. For the same molecule, the TGI (U251 CNS) was over 100 µM, the TGI (786-0 renal) was over 100 µM and the TGI (K-562 leukemia) was over 100 µM. The TGI (NCI/ADR-RES ovarian) was over 100 µM, the TGI (PC-3 prostate) was over 100 µM and the TGI (UO-31 renal) was over 100 µM. The TGI (HOP-92 NSCLC) was over 100 µM, the TGI (MDA-N) was over 100 µM and the TGI (A549 NSCLC) was over 100 µM. The TGI (OVCAR-5 ovarian) was over 100 µM, the TGI (TK-10 renal) was over 100 µM and the TGI (DU-145 prostate) was over 100 µM. It also gave a TGI (SN12C renal) of over 100 µM, a TGI (OVCAR-4 ovarian) of over 100 µM and a TGI (KM12 colon) of over 100 µM. For the same molecule, the TGI (NCI-H23 lung) was over 100 µM, the TGI (EKVX NSCLC) was over 100 µM and the TGI (LOX IMVI melanoma) was over 100 µM. The TGI (HCC-2998 colon) was over 100 µM, the TGI (SK-OV-3 ovarian) was over 100 µM and the TGI (HT29 colon) was over 100 µM. The TGI (RPMI-8226 leukemia) was over 100 µM, the TGI (NCI-H460 lung) was over 100 µM and the TGI (MCF7 breast) was over 100 µM. The TGI (SK-MEL-5 melanoma) was over 100 µM, the TGI (SF-295 CNS) was over 100 µM and the TGI (UACC-62 melanoma) was over 100 µM.
